Key:
benzodiazepine receptor = assay: in vivo binding test (reduction of specific flunitrazepam binding in a living brain); conditions: dose reducing specific binding of flunitrazepam to the benzodiazepine receptor in a living brain to 50% of the control value
Source text: The ED50 in vivo value represents the dose of a test compound effecting a reduction in specific binding of flunitrazepam to the benzodiazepine receptor in a living brain to 50% of the control value.

[1] = chimney test (motor discoordination); assay type: in vivo; conditions: ip, higher ED50 is better, as it indicates lower activity in inducing motor discoordination
Method: The chimney test was performed according to the method of Poissier, Jr., et al. Med. Exp. 3: 81-84 (1960). The higher the ED50 value in the chimney test the better, since this indicates a lower activity in inducing motor discoordination.

bioavailability in rats = conditions: rat, in vivo

Question: Which “ED50 mg/kg in vivo” value (benzodiazepine receptor) does the source give for `CCOC(=O)c1ncc2[nH]c3ccc(OCc4ccccc4)cc3c2c1COC` [A, 6-benzyloxy-4-methoxymethyl-beta-carboline-3-carboxylic acid ethyl ester] here?
Answer: The value was 5.6 mg/kg.

Question: What about the TD50 [1] of the same compound?
Answer: Its TD50 is 12.1 mg/kg.

Question: And the bioavailability (bioavailability in rats)?
Answer: The bioavailability was 17%.

Question: Which results are given for `COCc1c(C(=O)OC(C)C)ncc2[nH]c3ccc(OCc4ccccc4)cc3c12` [B, 6-benzyloxy-4-methoxymethyl-beta-carboline-3-carboxylic acid ispropyl ester]?
Answer: ED50 mg/kg in vivo (benzodiazepine receptor): 0.4 mg/kg; TD50 [1]: > 50 mg/kg; bioavailability (bioavailability in rats): 32%

Source: US5700808A, “5- or 6-substituted β-carboline-3-carboxylic acid esters” (Schering Aktiengesellschaft, priority 1986, dated 1997)
